Source: PMC6934184, “Selective DNA-PKcs inhibition extends the therapeutic index of localized radiotherapy and chemotherapy” (The Journal of Clinical Investigation, 2019)

Molecular target: T1, NEK9 (Homo sapiens, UniProt Q8TD19)
T1 construct: purchased Thermo Fisher Scientific (Life Technologies) SelectScreen
Assay: SelectScreen Z'LYTE
Format: biochemical
Procedure, shortened: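 Percent values come from Thermo SelectScreen profiling of NU5455, combining activity and binding assays. CSF1R was run in Z'LYTE format at Km app ATP, and CAMK1 in Adapta format with ATP listed at 10.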

T1 sequence (Q8TD19 whole entry): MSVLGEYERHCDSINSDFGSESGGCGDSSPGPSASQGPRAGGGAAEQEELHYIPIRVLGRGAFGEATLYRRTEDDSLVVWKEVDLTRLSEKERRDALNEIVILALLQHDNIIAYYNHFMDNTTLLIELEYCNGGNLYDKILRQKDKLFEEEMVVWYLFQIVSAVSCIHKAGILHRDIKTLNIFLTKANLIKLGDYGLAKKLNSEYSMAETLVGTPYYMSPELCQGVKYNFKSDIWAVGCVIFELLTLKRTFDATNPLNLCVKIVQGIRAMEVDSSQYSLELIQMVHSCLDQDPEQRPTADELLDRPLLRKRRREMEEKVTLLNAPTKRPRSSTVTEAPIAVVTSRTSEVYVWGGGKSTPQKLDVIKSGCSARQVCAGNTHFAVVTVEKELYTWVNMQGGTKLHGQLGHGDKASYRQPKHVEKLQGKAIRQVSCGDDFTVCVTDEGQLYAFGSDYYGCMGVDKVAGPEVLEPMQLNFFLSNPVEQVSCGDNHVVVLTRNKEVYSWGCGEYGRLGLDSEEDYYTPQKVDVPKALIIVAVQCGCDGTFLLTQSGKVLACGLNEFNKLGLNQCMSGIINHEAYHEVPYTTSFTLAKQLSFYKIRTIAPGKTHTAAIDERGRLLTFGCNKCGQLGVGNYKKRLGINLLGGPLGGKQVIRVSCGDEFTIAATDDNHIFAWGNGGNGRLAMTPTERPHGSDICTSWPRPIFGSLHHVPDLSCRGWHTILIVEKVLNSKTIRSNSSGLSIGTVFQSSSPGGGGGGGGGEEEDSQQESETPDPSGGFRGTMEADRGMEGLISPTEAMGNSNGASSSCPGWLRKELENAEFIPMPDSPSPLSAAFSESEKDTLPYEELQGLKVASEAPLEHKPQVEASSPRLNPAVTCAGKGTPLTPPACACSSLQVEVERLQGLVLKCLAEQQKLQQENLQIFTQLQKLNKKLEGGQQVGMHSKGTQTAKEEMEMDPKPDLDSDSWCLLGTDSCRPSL

## CN(C(=O)CN1CCOCC1)c1ccc2sc3c(-c4cccc5c(=O)cc(N6CC7CCC(C6)O7)oc45)cccc3c2c1 [NU5455]
  inhibition at 1 µM: -7.2%
